“And” between values parts separate entries of the source, which are not always exact repeats. Identical values can stand only once. No end group written: not given here.

Test [1] relates to HFD-fed mice. Nature of the test: Body weight, energy intake, organ and adipose tissue weights, DXA body fat in high-fat diet (HFD)-fed mice. The format is in vivo, C57BL/6 mice. From the text:
(§1) Four-week-old male C57BL/6 mice were purchased from the Nara Bio Animal Center (NARA Biotech, Seoul, Korea) All experiments were approved by the Institutional Animal Care and Use Committee of Konkuk University (14 July 2019). All possible efforts were made to minimize the suffering and the animal count utilized in this study (KU19102). The mice were randomly divided into the following two groups after 1 week of acclimatization: n = 8 in the control group, fed a normal diet (Control, fat content of 10% kcal), and n = 30, fed a high-fat diet (HFD, fat content of 60% kcal). Mice were registered daily for food intake, and their body weights were assessed twice a week. After 5 weeks, mice with a body weight 20% higher than that of the control group were picked and divided randomly into three groups (n = 8/group): HFD + EIA10, 100 mg/kg/d; and HFD + orlistat, 60 mg/kg /d for 5 weeks. As a positive control, Orlistat was used. After 12 weeks, the mice were subjected to fasting overnight and sacrificed (Figure 2A). Blood samples were harvested for further analysis. Sections of epididymal adipose and liver tissues were fixed in 10% formaldehyde for histological analyses and frozen in liquid nitrogen.
Dual-energy X-ray absorptiometry (DXA) measurements were used to compare the body fat. DXA measurements were performed after 4 weeks of administration using a total-body scanner (InAlyzer dual X-ray absorptiometry, Medikors, Gyeonggi, Korea). Data were obtained once with low energy and once with high energy.

Test [2] has as its system HFD-fed mice. Description: Serum biochemical parameters in HFD-fed mice. In kind it is in vivo, C57BL/6 mice. Conditions: EIA10 100 mg/kg/d or orlistat 60 mg/kg/d oral for 5 weeks, mean ± SEM, n = 8.
Description: as §1
Through heart puncture, blood samples were collected and serum was isolated through centrifugation (3000 rpm for 20 min) and processed before further study at −80 °C. An automated analyzer (Abaxis VETSVAN VS2 Chemistry Analyzer, Union City, CA, USA) assessed serum levels of blood urea nitrogen, alanine aminotransferase (ALT), alkaline phosphatase, aspartate aminotransferase (AST), total protein, serum albumin, and electrolytes. Using a fast blood lipid analyzer (OSANG Healthcare Lipid Pro, Anyang, Korea), total cholesterol (TC), low-density lipoprotein cholesterol (LDL), high-density lipoprotein cholesterol (HDL), and TG were calculated. Adiponectin was analyzed by Western blotting, and leptin was quantified using a leptin enzyme-linked immunosorbent assay (ELISA) kit (MERCK, DHB, Germany).

The test system of test [3] is HFD-fed mice. Description: Oral glucose tolerance test, insulin levels and insulin resistance indices in HFD-fed mice. The format is in vivo, C57BL/6 mice. Conditions: oral glucose 1 g/kg after 12 h fast; vs HFD group, p < 0.05; Figure 3B.
Description: as §1, with “After 5 weeks, mice with a body weight 20% higher than that of the control group were picked and divided randomly into three groups (n = 8/group):” left out, “nitrogen. An oral glucose tolerance test (OGTT) to determine the clearance of a standardized glucose load was performed after 5 weeks of oral administration. Plasma glucose was determined under postabsorptive conditions with blood collected at time ‒30 and 0 and then after oral administration of 1 g/kg of glucose at 30, 60, 90, and 120 min. Using a Blood Glucose Testing System (891 Hogye-Dong Dongan-gu, Anyang, Gyeonggi-do, Korea), blood samples were measured from the tail veins. A mouse ultrasensitive insulin ELISA package (ALPCO, Salem, NH, USA) was quantified for serum insulin. The hepatic insulin resistance index (hepatic IRI) was estimated by using the validated method of Matsuda and DeFronzo [43]. Insulin resistance was assessed using the homeostasis model assessment of insulin resistance (HOMA-IR). HOMA is a mathematically derived model of glucose–insulin feedback.” for “nitrogen.”

For another test, the system named is 3T3-L1 cells. Nature of the test: Lipid accumulation in differentiated 3T3-L1 cells by Oil Red O staining. In kind it is cell-based. Conditions: synthesized peptides, untreated cells as control. The protocol: The 3T3-L1 cells were obtained from the Korean Cell Line Bank (Seoul, Korea). They were cultured and maintained in Dulbecco’s modified Eagle medium (DMEM) at 37 °C in a humidified atmosphere of 5% CO2. Additionally, 2-day post-confluent preadipocytes (designated day 0) were cultured in a 2-day differentiation medium composed of DMEM, 0.5 mM IBMX, 1 μM dexamethasone, and 5 μg/mL insulin to induce differentiation. The cells were then cultured in a DMEM containing 5 μg/mL insulin for another 2 days. The medium was replaced every 2 days until the cells had accumulated intracellular lipid droplets. Cells were seeded in 6-well plates, and adipocyte differentiation was induced for 8 days. On day 8, the cells were fixed with 10% buffered formalin and stained with Oil Red O solution for 60 min at room temperature. Images of lipid droplets in the 3T3-L1 adipocytes were captured using a Leica DMi1 microscope (Leica, Germany).

The mark [4] stands for this setting: male C57BL/6 mice on HFD, EIA10 100 mg/kg/d or orlistat 60 mg/kg/d oral for 5 weeks, mean ± SEM, n = 8.

Turning to `CCCCCCCCCCC[C@@H](C[C@@H]1OC(=O)[C@H]1CCCCCC)OC(=O)[C@H](CC(C)C)NC=O` [Orlistat, reference compound], the Total fat weight in the test with HFD-fed mice [1] (DXA, male C57BL/6 mice on HFD, EIA10 100 mg/kg/d or orlistat 60 mg/kg/d oral, mean ± SEM, n = 8) is given as 13.71 ± 1.09 g. For the same compound, the “food intake between different drug groups (appetite)” value in the test with HFD-fed mice [1] (HFD-fed mice, EIA10 100 mg/kg/d or orlistat 60 mg/kg/d oral) is on record as “No significant difference”. Moreover, in the test with HFD-fed mice [1] (setting [4]), the Body weight gain is 12.56 ± 0.45 g, the “Epididymal adipose tissue weight” value is 1.90 ± 0.48 g, the Final body weight came out at 36.11 ± 3.92 g and the Initial body weight is recorded as 23.55 ± 0.07 g. For the same compound, in the test with HFD-fed mice [1] (setting [4]), the Liver weight was found to be 1.14 ± 0.12 g and the “Subcutaneous adipose tissue weight” value is given as 3.11 ± 0.53 g. Also, the Total energy intake with HFD-fed mice [1] (over 10 weeks, male C57BL/6 mice on HFD, EIA10 100 mg/kg/d or orlistat 60 mg/kg/d oral for 5 weeks, mean ± SEM, n = 8) was 1031.35 kcal and 1031.35 ± 26.32 kcal. The compound also gave a Glucose in the test on HFD-fed mice [2] of 160.78 ± 13.62 mg/dL. Besides, in the test on HFD-fed mice [2] (serum), the “ALT (alanine aminotransferase)” value stood at 44.75 ± 8.38 U/L, the “AST (aspartate aminotransferase)” value was 113.88 ± 16.17 U/L, the “HDL (high-density lipoprotein cholesterol)” value is reported as 72.05 ± 4.38 mg/dL and the LDL/VLDL came out at 41.21 ± 2.59 mg/dL. Besides, in the test on HFD-fed mice [2] (serum), the “TC (total cholesterol)” value is given as 113.26 ± 3.40 mg/dL and the “TG (triglyceride)” value is 115.52 ± 4.66 mg/dL. Besides, the “area under the OGTT curve (AUC)” value with HFD-fed mice [3] is given as “significantly lower”.
With ALNQAWAFLK [Peptide 16], in the test on 3T3-L1 cells, the “Lipid Accumulation (% of Control)” value is on record as 57.47 % of Control.
Still for that read-out and setting: as for AVQGLLK [Peptide 5], the figure is 48.40 % of Control; as for “Ala-Glu-Arg-Val-Gly-Ala-Gly-Ala-Pro-Val-Try [Peptide 17]”, 35.06 % of Control.
On the same count and under the same terms, as for EIAQDFK [Peptide 3], the figure is 52.20 % of Control; as for HLQLAIR [Peptide 4], 63.26 % of Control.
The same measure, in the same setting: as for HLQLAIRNDEELNK [Peptide 22], the figure is 83.11 % of Control.
As for IAQGGVLP [Peptide 6], the “Lipid Accumulation (% of Control)” value in the test on 3T3-L1 cells is 38.01 % of Control.
On to KLPFQR [Peptide 1], for which, in the test with 3T3-L1 cells, the “Lipid Accumulation (% of Control)” value is listed as 57.85 % of Control.
Still for that read-out and setting: as for NDEELNKLL [Peptide 7], the figure is 39.44 % of Control; as for NKLLSGVTIA [Peptide 14], 77.76 % of Control; as for QNIIPASTGAAK [Peptide 21], 44.40 % of Control.
As for RFQSSAVMA [Peptide 12], the “Lipid Accumulation (% of Control)” value in the test on 3T3-L1 cells is recorded as 57.47 % of Control.
The same measure, in the same setting: then RIVDFHMLESR [Peptide 18], with 41.94 % of Control.
As for SGVTIAQGGVLP [Peptide 19], the “Lipid Accumulation (% of Control)” value in the test on 3T3-L1 cells is given as 68.00 % of Control.
As to STELLIR [Peptide 2], in the test on 3T3-L1 cells, the “Lipid Accumulation (% of Control)” value is listed as 59.04 % of Control.
Turning to TLSDYNIQK [Peptide 13], in the test with 3T3-L1 cells, the “Lipid Accumulation (% of Control)” value is listed as 68.00 % of Control.
Turning to VTIAQGGVLFNIQA [Peptide 23], in the test with 3T3-L1 cells, the “Lipid Accumulation (% of Control)” value is 74.36 % of Control.

These data come from PMC7698306, “Exploring the Role of a Novel Peptide from Allomyrina dichotoma Larvae in Ameliorating Lipid Metabolism in Obesity” (International Journal of Molecular Sciences, 2020).
